PMC11022890 (Drug Metabolism and Disposition, 2021)

How the values were obtained:
[1] = target: T1, UGT1A9 in human liver microsomes (Homo sapiens, UniProt O60656); assay: biochemical; settings: HLM
T1 sequence (O60656 26-530): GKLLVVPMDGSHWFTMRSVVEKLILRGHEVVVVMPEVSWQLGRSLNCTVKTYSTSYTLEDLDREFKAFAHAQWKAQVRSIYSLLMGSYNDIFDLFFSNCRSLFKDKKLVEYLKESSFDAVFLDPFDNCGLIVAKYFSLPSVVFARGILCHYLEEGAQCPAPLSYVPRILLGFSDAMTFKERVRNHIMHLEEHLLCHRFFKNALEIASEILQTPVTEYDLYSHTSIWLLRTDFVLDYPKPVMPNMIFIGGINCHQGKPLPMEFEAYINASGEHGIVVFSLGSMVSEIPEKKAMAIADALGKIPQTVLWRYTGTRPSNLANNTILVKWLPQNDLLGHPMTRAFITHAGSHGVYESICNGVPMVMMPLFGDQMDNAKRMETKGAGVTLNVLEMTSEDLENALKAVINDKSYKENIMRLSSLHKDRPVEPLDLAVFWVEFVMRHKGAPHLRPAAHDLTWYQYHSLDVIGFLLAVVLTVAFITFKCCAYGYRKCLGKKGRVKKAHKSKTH

UGT1A4 = target: T2, UGT1A4 (Homo sapiens, UniProt P22310); assay: Screening: inhibition of trifluoperazine glucuronidation in rUGT1A4 microsomes; format: in vitro ADME; settings: 10 or 100 µM
T2 sequence (P22310 29-534): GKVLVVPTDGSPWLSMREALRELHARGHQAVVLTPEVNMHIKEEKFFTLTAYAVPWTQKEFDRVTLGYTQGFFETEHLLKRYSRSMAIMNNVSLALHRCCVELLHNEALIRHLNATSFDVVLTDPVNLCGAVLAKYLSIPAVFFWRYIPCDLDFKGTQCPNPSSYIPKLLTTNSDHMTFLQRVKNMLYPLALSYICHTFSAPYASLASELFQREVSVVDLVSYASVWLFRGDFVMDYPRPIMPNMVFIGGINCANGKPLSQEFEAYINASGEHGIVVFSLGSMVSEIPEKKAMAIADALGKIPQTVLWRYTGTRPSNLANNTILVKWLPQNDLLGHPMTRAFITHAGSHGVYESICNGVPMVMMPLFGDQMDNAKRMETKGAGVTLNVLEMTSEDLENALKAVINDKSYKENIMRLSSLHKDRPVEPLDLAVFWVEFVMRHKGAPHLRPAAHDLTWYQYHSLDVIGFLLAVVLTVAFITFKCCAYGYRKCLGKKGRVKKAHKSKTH

UGT1A3 = target: T3, UGT1A3 (Homo sapiens, UniProt P35503); format: in vitro ADME; settings: rUGT1A3 microsomes; 10 or 100 µM
T3 sequence (P35503 29-534): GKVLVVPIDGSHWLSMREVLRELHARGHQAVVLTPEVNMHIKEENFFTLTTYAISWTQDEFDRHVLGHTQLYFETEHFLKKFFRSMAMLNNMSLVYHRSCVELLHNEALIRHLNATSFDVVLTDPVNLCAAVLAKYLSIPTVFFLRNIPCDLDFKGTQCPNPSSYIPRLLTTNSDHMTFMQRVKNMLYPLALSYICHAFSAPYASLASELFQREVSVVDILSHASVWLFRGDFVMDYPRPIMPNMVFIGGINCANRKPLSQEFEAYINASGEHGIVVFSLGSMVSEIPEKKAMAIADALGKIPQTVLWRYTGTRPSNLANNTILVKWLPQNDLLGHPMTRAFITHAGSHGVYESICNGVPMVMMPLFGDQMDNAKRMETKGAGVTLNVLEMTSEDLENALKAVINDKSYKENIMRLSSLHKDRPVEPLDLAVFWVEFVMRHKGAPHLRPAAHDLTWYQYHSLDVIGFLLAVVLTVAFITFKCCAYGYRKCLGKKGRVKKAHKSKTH

UGT1A9 [2] = target: T4, UGT1A9 (Homo sapiens, UniProt O60656); assay: in vitro; settings: both, HLM
T4 sequence (O60656 26-530): T1 sequence (O60656 26-530)

UGT1A9 [3] = target: T4, UGT1A9; assay: Inhibition of propofol glucuronidation in rUGT1A9 microsomes; format: in vitro ADME
UGT1A6 = target: T5, UGT1A6 (Homo sapiens, UniProt P19224); assay: Inhibition of serotonin glucuronidation in rUGT1A6 microsomes; format: in vitro ADME; settings: for inhibition vs control without cannabinoid: serotonin
T5 sequence (P19224 27-532): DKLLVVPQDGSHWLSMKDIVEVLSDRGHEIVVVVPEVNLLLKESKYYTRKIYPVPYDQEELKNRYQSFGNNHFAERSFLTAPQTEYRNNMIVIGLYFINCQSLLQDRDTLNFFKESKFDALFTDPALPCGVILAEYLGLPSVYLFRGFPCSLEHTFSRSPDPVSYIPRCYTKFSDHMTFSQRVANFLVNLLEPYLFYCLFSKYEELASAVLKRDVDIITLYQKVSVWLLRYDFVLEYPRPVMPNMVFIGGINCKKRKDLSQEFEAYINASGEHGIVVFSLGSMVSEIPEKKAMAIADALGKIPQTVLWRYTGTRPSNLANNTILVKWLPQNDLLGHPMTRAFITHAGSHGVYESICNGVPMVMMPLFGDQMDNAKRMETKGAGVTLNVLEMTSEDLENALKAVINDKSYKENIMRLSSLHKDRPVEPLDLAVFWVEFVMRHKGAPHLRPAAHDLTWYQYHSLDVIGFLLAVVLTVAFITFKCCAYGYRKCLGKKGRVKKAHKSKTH

[4] = target: T6, UGT1A9 in human kidney microsomes (Homo sapiens, UniProt O60656); assay: Inhibition of furosemide glucuronidation; settings: HKM
T6 sequence (O60656 26-530): T1 sequence (O60656 26-530)

[5] = IC50,u (binding-corrected IC50), probe substrate propofol
[6] = IC50, probe substrate acetaminophen
[7] = IC50,u (binding-corrected IC50), probe substrate acetaminophen
[8] = IC50, probe substrate furosemide
[9] = IC50,u (binding-corrected IC50), probe substrate furosemide

## CCCCCc1cc(O)c2c(c1)OC(C)(C)c1ccc(C)cc1-2 [CBN, cannabinol]
[1]; IC50, probe substrate propofol
  IC50: 31 ± 4.1 µM
[1]; [5]
  IC50: 2.9 ± 0.38 µM
UGT1A4
  inhibition in screening (in words): no significant inhibition
UGT1A3
  inhibition in screening (in words): no significant inhibition
UGT1A9 [2]; [6]
  IC50: 34 ± 6.3 µM
UGT1A9 [2]; [7]
  IC50: 3.1 ± 0.58 µM
UGT1A9 [3]; 10 or 100 µM
  inhibition in screening (in words): significant inhibition
UGT1A9 [3]; IC50, probe substrate propofol
  IC50: 6 ± 0.75 µM
UGT1A9 [3]; [5]
  IC50: 0.51 ± 0.063 µM
UGT1A6; 100 µM, screening in duplicate
  inhibition vs control without cannabinoid: 43%
[4]; [8]
  IC50: 15 ± 0.77 µM
[4]; [9]
  IC50: 1.9 ± 0.092 µM

## C=C(C)[C@@H]1CCC(C)=C[C@H]1c1c(O)cc(CCCCC)cc1O [CBD, cannabidiol]
[1]; IC50, probe substrate propofol
  IC50: 19 ± 4.6 µM
[1]; [5]
  IC50: 1 ± 0.24 µM
UGT1A4
  inhibition in screening (in words): no significant inhibition
UGT1A3
  inhibition in screening (in words): no significant inhibition
UGT1A9 [2]; [6]
  IC50: 12 ± 3.2 µM
UGT1A9 [2]; [7]
  IC50: 0.64 ± 0.16 µM
UGT1A9 [3]; 10 µM, propofol, screening
  inhibition vs control without cannabinoid: 91%
UGT1A9 [3]; IC50, probe substrate propofol
  IC50: 3.2 ± 0.52 µM
UGT1A9 [3]; [5]
  IC50: 0.12 ± 0.02 µM
UGT1A6; 10 µM, screening
  inhibition vs control without cannabinoid: 25%
UGT1A6; 100 µM, screening in duplicate
  inhibition vs control without cannabinoid: 54%
UGT1A6; IC50,u (binding-corrected IC50), probe substrate serotonin
  IC50: 0.4 ± 0.1 µM
[4]; [8]
  IC50: 3.6 ± 0.8 µM
[4]; [9]
  IC50: 0.22 ± 0.049 µM
